This experiment has as its target T1, human thrombopoietin receptor (c-mpl) (Homo sapiens, UniProt P40238).
T1 construct: expressed in transfected cells
T1 sequence (P40238 26-635): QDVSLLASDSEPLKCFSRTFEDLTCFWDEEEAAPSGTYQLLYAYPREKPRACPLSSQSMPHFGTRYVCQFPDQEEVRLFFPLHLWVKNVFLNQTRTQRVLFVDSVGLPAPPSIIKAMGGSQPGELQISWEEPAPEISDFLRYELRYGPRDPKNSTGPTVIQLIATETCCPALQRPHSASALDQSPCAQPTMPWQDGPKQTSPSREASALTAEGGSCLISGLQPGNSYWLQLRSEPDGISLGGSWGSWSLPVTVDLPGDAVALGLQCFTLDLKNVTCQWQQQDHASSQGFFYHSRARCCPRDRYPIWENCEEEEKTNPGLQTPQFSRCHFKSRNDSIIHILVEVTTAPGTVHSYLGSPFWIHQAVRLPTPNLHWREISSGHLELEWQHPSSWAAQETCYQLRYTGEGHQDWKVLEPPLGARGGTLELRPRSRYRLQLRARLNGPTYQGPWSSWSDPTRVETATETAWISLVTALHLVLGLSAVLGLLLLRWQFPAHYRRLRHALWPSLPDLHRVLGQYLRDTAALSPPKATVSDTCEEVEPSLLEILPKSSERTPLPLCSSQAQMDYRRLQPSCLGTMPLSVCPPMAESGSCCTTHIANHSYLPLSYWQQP
As to the kind of experiment: Stimulation of proliferation of thrombopoietin-dependent cell line UT7/EPO-mpl (WST-8). Type of experiment: cell-based. The settings on record: human leukemic cell line UT-7/EPO-mpl, 4 days incubation, WST-8, absorbance at 450 nm; read-out: EC50 (concentration that yields a growth rate corresponding to 50% of the growth observed in the presence of 10 ng/mL TPO) (converted). Here is the method: The responses of thrombopoietin receptor to the compounds of the present invention prepared in the Synthetic Examples were assayed using a human leukemic cell line, UT7/EPO-mpl.
UT7/EPO-mpl is a stable transformed cell line obtained by introducing into human leukemic cell line UT7/EPO a vector that induces expression of human thrombopoietin receptor (c-mpl) under control of cytomegalovirus immediate-early promoter by the method of Takatoku et al. (J. Biol. Chem., 272:7259-7263 (1997)). […] These two cell lines were subcultured in IMDM (GIBCO) containing 10% fetal bovine serum (Thermo Electron or BioWest) using a CO2 incubator (5% CO2, 37° C.).
The subcultured cells described above were washed twice with PBS and suspended in IMDM containing 10% fetal bovine serum at a cell density of 6×10^4 cells/ml. The cell suspension was transferred to a 96-well tissue culture plate (CORNING) in 100-μl aliquots. Then either thrombopoietin (Pepro Tech EC) or the compounds of the Synthetic Examples dissolved in dimethyl sulfoxide were diluted 83-fold with IMDM containing 10% fetal bovine serum and added to the aforementioned cell suspension in 20-μl aliquots. The cell suspension was incubated in a CO2 incubator (5% CO2, 37° C.) for 4 days. […] The formazan pigment generated was detected by measuring the absorbance at 450 nm with a 96-well microplate reader (Nihon Molecular Devices, Spectramax 190). […]

Here are results for one compound from patent US8093251B2, “Nitrogen-containing heterocyclic compounds and thrombopoietin receptor activators” (Nissan Chemical Industries, Ltd., priority 2006, dated 2012).

In the case of `CCOC(=O)CN1CCN(C(=S)NNC(C)=C2C(=O)N(c3ccc(C(C)(C)C)cc3)N=C2C)CC1` [Example 7], the EC50 is 71.9 nM.
